Source: US12678518B2, “Theranostic probe and its use for targeting and/or labeling the EGFR kinase and/or the cells expressing EGFR or its family members” (Tianjin University, priority 2019, dated 2026)

Assays:
Format in all cases: cell-based
[1] = biological target: T1, EGFR dimers (L834R/V924R) (Homo sapiens, UniProt P00533, L858R/V948R); assay: Protein complementary assay (split YFP), PDCy3 binding to EGFR dimers, L834R with V924R; conditions: V924R on top of L834R, 1 μM PDCy3
T1 construct: one encoding human EGFR(1-998) fused with a split YFP-N(1-172) fragment; the other encoding hEGFR(1-998) linked to a split YFP-C(155-238) fragment; expressed in transfected cells; host or cells: HEK 293T
Source text: (§1) Protein complementary assay. For protein complementary assay, we designed two complementary constructs: one encoding human EGFR(1-998) fused with a split YFP-N(1-172) fragment, and the other encoding hEGFR(1-998) linked to a split YFP-C(155-238) fragment. Kinase mutations were introduced on both constructs to make a complementary pair. All the constructs were verified by sequencing. The paired constructs encoding the same receptor were co-transfected into HEK 293T cells. Transfected cells were starved in EX-Cell 293 Serum-Free Medium for 44 hours before treatment with 1 μM PDCy3 for additional 4 hours. The dimerization of the EGF receptors and the binding of dimerized receptors to PDCy3 were analyzed by flowcytometry.
(§2) To further investigate how EGFR kinase dimerization affects PDCy3 binding, we did a protein complementary assay. In the assay, split YFP fragments were individually fused to the C-terminus of the full length EGFR, and EGF kinase dimerization was reported by the fluorescence of assembled YPF from co-transfected receptors (FIG. 4A)^23. As shown in the FIG. 4B, the cells with co-expressed EGFR dimers could be divided into two populations. In one population, the quantity of bound PDCy3 increased linearly as a function of the expression levels of EGFR dimers (FIG. 4C). But in the other population, the quantity of bound PDCy3 was independent of the expressed EGFR dimers. […]

EGFR wild type = biological target: T2, EGFR wild type (Homo sapiens, UniProt P00533); assay: Flowcytometry of PDCy3 binding to EGFR-transfected HEK293T cells (cell sorting)
T2 construct: plasmids encoding human EGFR (1-988) and split YFP fragments; host or cells: HEK 293T
Experimental: (§3) Cell sorting. […] After 30-minute incubation on ice, cells were washed twice with 500 μl/well PBS, and were re-suspended in 400 l PBS. Then, 0.3 μl FITC-labelled secondary antibody at a concentration of 2 mg/ml was added to each sample. After incubation on ice for 30 minutes, cells were washed three times with PBS, re-suspended in 400 μl/well PBS, and analyzed by flowcytometry using a BD FACS Calibur machine.
The binding abilities of the PDCy3 probe to EGFR-expressed cells were compared by flowcytometry under different conditions.
We compared the efficiencies in labelling EGFR over-expressed cells versus those non-over-expressed cells under different PDCy3 concentrations (FIG. 3A).
as §3, with “500 μL/well” for “500 μl/well”, “400 μL” for “400 l”, “0.3 μL” for “0.3 μl”, “2 mg/mL” for “2 mg/ml”, “400 μL/well” for “400 μl/well”, “by floweytometry” for “by flowcytometry”
The binding abilities of PDCy3 to EGFR-expressed and non-expressed cells were compared by flowcytometry under different conditions.
To characterize the specificity of PDCy3, we compared the efficiencies in labelling EGFR over-expressed cells versus those non-over-expressed cells under different PDCy3 concentrations (FIG. 3A).

EGFR dimers (L834R) = biological target: T3, EGFR dimers (L834R) (Homo sapiens, UniProt P00533, L858R); assay: Protein complementary assay (split YFP), PDCy3 binding to EGFR dimers, L834R
T3 construct: one encoding human EGFR(1-998) fused with a split YFP-N(1-172) fragment; the other encoding hEGFR(1-998) linked to a split YFP-C(155-238) fragment; expressed in transfected cells; host or cells: HEK 293T
Source text: as §1, §2

CN1/C(=C/C=C/C2=[N+](CCCCCC(=O)NCCC/C=C/C(=O)Nc3ccc4ncnc(Nc5cccc(Br)c5)c4c3)c3ccc(S(=O)(=O)O)cc3C2(C)C)C(C)(C)c2cc(S(=O)(=O)[O-])ccc21 [PDCy3, 1-(6-((E)-6-(4-(3-bromophenylamino)quinazolin-6-ylamino)-6-oxohex-4-enylamino)-6-oxohexyl)-3,3-dimethyl-2-((1E,3E)-3-(1,3,3-trimethyl-5-sulfonatoindolin-2-ylidene)prop-1-enyl)-3H-indolium-5-sulfonate]
fraction of the population with the higher sensitivity to PDCy3 (population A) [1]: 49.2% | effect of EGF treatment on binding of PDCy3 to EGFR-expressed cells (EGFR wild type; 10 nM EGF): did not enhance | EGFR positive cells labeled by the probe (EGFR wild type; 1 μM PDCy3, transfected HEK293T cells): over 84.9% | sensitivity of transfected cells to PDCy3 in flowcytometry (EGFR wild type; 293T cells transfected with the WT receptor): high sensitivity | population of EGFR-expressed, PDCy3 positive cells (EGFR wild type; in the presence of EGF (10 nM), 1 μM PDCy3, no gefitinib): 45.4% | fraction of EGFR-expressed, PDCy3 positive cells relative to the total EGFR-expressed cells (EGFR wild type; in the presence of EGF, no gefitinib): 24.9% | relative bound PDCy3 (EGFR wild type; in the presence of EGF, no gefitinib, mean fluorescent intensity times fraction of PDCy3+/EGFR+ cells): 45.4 a.u. | population (fraction) of PDCy3-bound, EGFR positive cells (EGFR wild type; wild type EGFR, 1 μM PDCy3): 52.4% | fraction of the population with the higher sensitivity to PDCy3 (population A) (EGFR dimers (L834R); L834R receptor pair, 1 μM PDCy3): 27.4% | sensitivity of population A versus population B in response to PDCy3 binding (EGFR dimers (L834R); L858R (so in the source) mutant dimers): 5 times
